According to patent US6613534B2, “MAP-2 as a determinant of metastatic potential” (Wake Forest University Health Sciences, priority 2001, dated 2003):
“Also recorded” adds a separate entry of the source. Read-outs that look alike come from different tables or passages of the source.

What was measured:
[1] = tested on: MAP-2 mRNA in SK-MEL-19 melanoma cells; test: Northern blot of total RNA for MAP-2 expression, cAMP and protein kinase C pathway agents (FIG. 8); format: cell-based, human
[2] = tested on: TYRP1 mRNA in SK-MEL-19 melanoma cells; test: Northern blot of total RNA for TYRP1 expression (FIG. 8); format: cell-based, human
[3] = tested on: MAP-2 cDNA (approximately 450 bp fragment) in SK-MEL-19 melanoma cells; test: Differential display RT-PCR of control and HMBA-treated cells; format: cell-based, human; conditions: 5 mM HMBA-treated vs control SK-MEL-19 cells
Procedure: Differential display was used to characterize changes in gene expression associated with growth inhibition in melanoma cells. For differential display (DD), RT-PCR was performed using a GeneAmp System 2400 (Perkin-Elmer Corp., Foster City, Calif.). DD was performed using the DeltaTM Differential Display Kit (Clontech Laboratories Inc.). […] Diluted cDNA (1:12.5 and 1:50) was used to amplify DD-PCR product in the presence of [α-^33P]dATP (Dupont NEN, Boston, Mass.) using a random combination of arbitrary primers and oligo (dT) primers. PCR products were resolved by electrophoresis in a 5% polyacrylamide, 8 M urea sequencing gel. The gel was dried and exposed to Biomax MS film (Kodak, Rochester, N.Y.). Bands differentially expressed between untreated and treated samples were cut, eluted, re-amplified, sequenced by the ABI 377 DNA Sequencer (Perkin-Elmer Corp., Foster City, Calif.). Differential display analysis was performed using RNA obtained from control and HMBA-treated SK-MEL-19 melanoma cells. Primer […] NO: 4) and oligo dT primer […] U32996; nucleotides 1931-2384). […] Cell Biol., 106:779-783 (1988)).

[4] = tested on: TYRP1 in cultured human metastatic melanoma cells; conditions: cited from earlier work
[5] = tested on: SK-MEL-19 human metastatic melanoma cell line; test: Cell morphology of HMBA-treated melanoma cells (FIG. 3); format: cell-based; conditions: SK-MEL-19, 5 mM HMBA for 5 days
[6] = tested on: cultured human metastatic melanoma cells; conditions: cited from earlier work
[7] = tested on: mouse erythroleukemia cells (MEL) and a variety of human tumor cells; conditions: cited from earlier work
[8] = SK-MEL-19, 5 mM HMBA, 2.5 nM CT, 10 ng/ml TPA or combinations, 6, 24 and 48 h

Row | Compound | MAP-2 expression (MAP-2c mRNA) [1] | TYRP1 mRNA expression [2] | expression of ~450 bp MAP-2 cDNA by differential display [3] | MAP-2 expression (MAP-2c mRNA) [1, 8] | TYRP1 expression [4] | TYRP1 mRNA expression [2, 8] | cell morphology [5] | cell growth [6] | cell cycle distribution [7] | terminal differentiation ([7]; mouse erythroleukemia cells (MEL) and a variety of human tumor cells)
1 | CCCCCCCCCCCCCC(=O)O[C@@H]1[C@@H](C)[C@@]2(O)[C@@H](C=C(CO)C[C@]3(O)C(=O)C(C)=C[C@@H]23)[C@@H]2C(C)(C)[C@]12OC(C)=O [TPA, 12-O-tetradecanoyl phorbol-13-acetate] | did not induce MAP-2 expression; also recorded: does not change MAP-2 expression | did not cause down-regulation of TYRP1 mRNA | – | – | – | – | – | – | – | –
2 | cholera toxin [CT] | did not induce MAP-2 expression; also recorded: does not change MAP-2 expression | did not cause down-regulation of TYRP1 mRNA | – | – | – | – | – | – | – | –
3 | CC(=O)NCCCCCCNC(C)=O [HMBA, hexamethylene bisacetamide] | – | – | over expressed in treated cells; also recorded: generates an approximately 450 bp cDNA | up-regulation of MAP-2 expression was detected | selective down-regulation | extinction of TYRP1 expression | induction of dendritic morphology; also recorded: formation of dendrite-like structures | inhibits growth | accumulation of cells in G0/G1 phase with a significant decrease in population of cells in G2/M phase | induce terminal differentiation
